Data taken from patent publication US4261892A, “2,4,6-Tris-(substituted-amino)-s-triazines” (American Cyanamid Company, priority 1979, dated 1981).
Where two headings read alike, the source gives them in different places.

How the values were obtained:
[1] = tested on: Adjuvant Arthritis In Rats; test: Adjuvant-induced arthritis in rats (chronic inflammation accompanied by joint destruction); assay type: in vivo, Royal Hart, Wistar strain rats; conditions: for inhibition in vivo at 0.25 mg/kg / inhibition in vivo at 0.5 mg/kg / inhibition in vivo at 2 mg/kg / inhibition in vivo at 1 mg/kg / inhibition in vivo at 18.8 mg/kg / inhibition in vivo at 37.5 mg/kg / inhibition in vivo at 75 mg/kg / inhibition in vivo at 150 mg/kg: Rattus norvegicus
Procedure: Groups of three Royal Hart, Wistar strain rats weighing 200±10 grams each were injected intradermally in the right hind paw with Freund's adjuvant (dried human tubercle bacilli in a mineral oil vehicle) at a dose of 2 mg./kg. of body weight. […] On the 14th and 21st day post challenge the diameter of the injected paw (primary lesion) was measured by micrometer caliper. The volume of inflamed paws were estimated from these measurements and the results are expressed as percent inhibition of swelling as compared to controls. At the same time, the other inflamed sites, such as ears, paws and tail (secondary lesions) were observed and each rat was graded as to degree of inflammation and swelling present. The grading is based on a scale of 0 to 24 where 0 represents a complete absence of induced arthritic nodules and 24 represents the maximum degree of inflammation. The mean grade for each treated group is calculated and the effects of each compound are expressed as percent inhibition of the control grade.

[2] = tested on: arthritic paw swelling / joint and bone deterioration; conditions: literature (Wong et al., Bobalick et al.); cited from earlier work
[3] = oral 0.25 mg./kg. once daily days 0-13, Day 14
[4] = oral 0.25 mg./kg. once daily days 0-13, Day 21
[5] = oral 0.5 mg./kg. once daily days 0-13, Day 14
[6] = oral 0.5 mg./kg. once daily days 0-13, Day 21
[7] = oral 1 mg./kg. once daily days 0-13, Day 14
[8] = oral 1 mg./kg. once daily days 0-13, Day 21
[9] = oral 2 mg./kg. once daily days 0-13, Day 14
[10] = oral 2 mg./kg. once daily days 0-13, Day 21
[11] = oral 18.8 mg./kg. once daily days 0-13, Day 14
[12] = oral 18.8 mg./kg. once daily days 0-13, Day 21
[13] = oral 37.5 mg./kg. once daily days 0-13, Day 14
[14] = oral 37.5 mg./kg. once daily days 0-13, Day 21
[15] = oral 75 mg./kg. once daily days 0-13, Day 14
[16] = oral 75 mg./kg. once daily days 0-13, Day 21
[17] = oral 150 mg./kg. once daily days 0-13, Day 14
[18] = oral 150 mg./kg. once daily days 0-13, Day 21

COc1ccc2c(c1)c(CC(=O)O)c(C)n2C(=O)c1ccc(Cl)cc1 [Indomethacin]
inhibition in vivo at 0.25 mg/kg ([1]; 336 h, oral 0.25 mg./kg. once daily days 0-13, Day 14, read-out: % Inhibition of Swelling (primary lesion) Day 14): 30%
inhibition in vivo at 0.5 mg/kg ([1]; 336 h, oral 0.5 mg./kg. once daily days 0-13, Day 14, read-out: % Inhibition of Swelling (primary lesion) Day 14): 40%
inhibition in vivo at 2 mg/kg ([1]; 336 h, oral 2 mg./kg. once daily days 0-13, Day 14, read-out: % Inhibition of Swelling (primary lesion) Day 14): 51%
inhibition in vivo at 0.25 mg/kg ([1]; 504 h, oral 0.25 mg./kg. once daily days 0-13, Day 21, read-out: % Inhibition of Swelling (primary lesion) Day 21): 4%
inhibition in vivo at 0.5 mg/kg ([1]; 504 h, oral 0.5 mg./kg. once daily days 0-13, Day 21, read-out: % Inhibition of Swelling (primary lesion) Day 21): 20%
inhibition in vivo at 1 mg/kg ([1]; 504 h, oral 1 mg./kg. once daily days 0-13, Day 21, read-out: % Inhibition of Swelling (primary lesion) Day 21): 19%
inhibition in vivo at 2 mg/kg ([1]; 504 h, oral 2 mg./kg. once daily days 0-13, Day 21, read-out: % Inhibition of Swelling (primary lesion) Day 21): 24%
inhibition in vivo at 1 mg/kg ([1]; po, 336 h, read-out: % Inhibition of Swelling (primary lesion) Day 14): 46%
% Inhibition of Control Grade (secondary lesion) Day 14 [1, 3]: 22%
Mean Weight Gain (grams) Day 14 [1, 3]: 51 grams
% Inhibition of Control Grade (secondary lesion) Day 21 [1, 4]: 4%
Mean Weight Gain (grams) Day 21 [1, 4]: 57 grams
Dead/Treated at 21 Days ([1]; oral 0.25 mg./kg. once daily days 0-13): 0/9
% Inhibition of Control Grade (secondary lesion) Day 14 [1, 5]: 25%
Mean Weight Gain (grams) Day 14 [1, 5]: 53 grams
% Inhibition of Control Grade (secondary lesion) Day 21 [1, 6]: 17%
Mean Weight Gain (grams) Day 21 [1, 6]: 51 grams
Dead/Treated at 21 Days ([1]; oral 0.5 mg./kg. once daily days 0-13): 5/54
% Inhibition of Control Grade (secondary lesion) Day 14 [1, 7]: 34%
Mean Weight Gain (grams) Day 14 [1, 7]: 63 grams
% Inhibition of Control Grade (secondary lesion) Day 21 [1, 8]: 20%
Mean Weight Gain (grams) Day 21 [1, 8]: 65 grams
Dead/Treated at 21 Days ([1]; oral 1 mg./kg. once daily days 0-13): 9/54
% Inhibition of Control Grade (secondary lesion) Day 14 [1, 9]: 38%
Mean Weight Gain (grams) Day 14 [1, 9]: 68 grams
% Inhibition of Control Grade (secondary lesion) Day 21 [1, 10]: 25%
Mean Weight Gain (grams) Day 21 [1, 10]: 68 grams
Dead/Treated at 21 Days ([1]; oral 2 mg./kg. once daily days 0-13): 8/57
arthritic paw swelling [2]: inhibit arthritic paw swelling
joint and bone deterioration [2]: prevent joint and bone deterioration

CCCCC1C(=O)N(c2ccccc2)N(c2ccccc2)C1=O [Phenylbutazone]
inhibition in vivo at 18.8 mg/kg ([1]; 336 h, oral 18.8 mg./kg. once daily days 0-13, Day 14, read-out: % Inhibition of Swelling (primary lesion) Day 14): 31%
inhibition in vivo at 37.5 mg/kg ([1]; 336 h, oral 37.5 mg./kg. once daily days 0-13, Day 14, read-out: % Inhibition of Swelling (primary lesion) Day 14): 56%
inhibition in vivo at 75 mg/kg ([1]; 336 h, oral 75 mg./kg. once daily days 0-13, Day 14, read-out: % Inhibition of Swelling (primary lesion) Day 14): 62%
inhibition in vivo at 150 mg/kg ([1]; 336 h, oral 150 mg./kg. once daily days 0-13, Day 14, read-out: % Inhibition of Swelling (primary lesion) Day 14): 75%
inhibition in vivo at 18.8 mg/kg ([1]; 504 h, oral 18.8 mg./kg. once daily days 0-13, Day 21, read-out: % Inhibition of Swelling (primary lesion) Day 21): 7%
inhibition in vivo at 37.5 mg/kg ([1]; 504 h, oral 37.5 mg./kg. once daily days 0-13, Day 21, read-out: % Inhibition of Swelling (primary lesion) Day 21): 14%
inhibition in vivo at 75 mg/kg ([1]; 504 h, oral 75 mg./kg. once daily days 0-13, Day 21, read-out: % Inhibition of Swelling (primary lesion) Day 21): 28%
inhibition in vivo at 150 mg/kg ([1]; 504 h, oral 150 mg./kg. once daily days 0-13, Day 21, read-out: % Inhibition of Swelling (primary lesion) Day 21): 44%
% Inhibition of Control Grade (secondary lesion) Day 14 [1, 11]: 4%
Mean Weight Gain (grams) Day 14 [1, 11]: 50 grams
% Inhibition of Control Grade (secondary lesion) Day 21 [1, 12]: 8%
Mean Weight Gain (grams) Day 21 [1, 12]: 45 grams
Dead/Treated at 21 Days ([1]; oral 18.8 mg./kg. once daily days 0-13): 2/21
% Inhibition of Control Grade (secondary lesion) Day 14 [1, 13]: 18%
Mean Weight Gain (grams) Day 14 [1, 13]: 53 grams
% Inhibition of Control Grade (secondary lesion) Day 21 [1, 14]: 13%
Mean Weight Gain (grams) Day 21 [1, 14]: 53 grams
Dead/Treated at 21 Days ([1]; oral 37.5 mg./kg. once daily days 0-13): 5/39
% Inhibition of Control Grade (secondary lesion) Day 14 [1, 15]: 27%
Mean Weight Gain (grams) Day 14 [1, 15]: 51 grams
% Inhibition of Control Grade (secondary lesion) Day 21 [1, 16]: 15%
Mean Weight Gain (grams) Day 21 [1, 16]: 50 grams
Dead/Treated at 21 Days ([1]; oral 75 mg./kg. once daily days 0-13): 2/39
% Inhibition of Control Grade (secondary lesion) Day 14 [1, 17]: 54%
Mean Weight Gain (grams) Day 14 [1, 17]: 40 grams
% Inhibition of Control Grade (secondary lesion) Day 21 [1, 18]: 31%
Mean Weight Gain (grams) Day 21 [1, 18]: 50 grams
Dead/Treated at 21 Days ([1]; oral 150 mg./kg. once daily days 0-13): 2/27
